We go through 52 sequences from the supplement of paper PMC11208160.
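Also: IS621 bridge recombinase in Escherichia coli cells against a fixed T5 target plasmid.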

A short description of the data set: recombinant UMI read abundance after kanamycin selection (control-corrected) (log10(CPM+1)); higher = more efficient recombination; extreme values may be limits of the assay; sequences stand for … in AGTGCAGAGAAAATCGGCCAGTTTTCTCTGCCTGCAGTCCGCATGCCGTGGGACCCCTTGGGTTCTAACCTGTTGCCTAGATTTATGCAGCGGACTGCCTTTCTCCCAAAGTGATAAACCGG…AGGTTGGTTTCACT; site = the 11-nt donor. In short, it runs like this:
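Reported values are log10(CPM+1) from a pooled Escherichia coli screen of donor and donor-binding-loop pairs for the IS621 bridge recombinase. Selection used IPTG (0.07 mM) plus kanamycin, against unselected plating, each in two replicates. Recombinant UMIs were amplified across the donor–target junction, sequenced, converted to CPM, averaged over replicates and scaled by control-derived factors.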
“TAATGAGCATGGACCGGTTTTCCCGGTAATCCGTATTTGGG (site TAATGGGCTCC)”: the “recombinant UMI read abundance (log10)” value turned out to be 0.0142.
With “TAATGAGCATGGACCGGTTTTCCCGGTAATCCGTATTTGGG (site TAATGTGCTCC)” the figure was 0; with “TAATGAGCATGGACCGGTTTTCCCGGTAATCCGTATTTGGG (site TAATTAGCTCC)”, 0.00449.
With “TAATGAGCATGGACCGGTTTTCCCGGTAATCCGTATTTGGG (site TACTGAGCTCC)” the figure was 0.00582; with “TAATGAGCATGGACCGGTTTTCCCGGTAATCCGTATTTGGG (site TAGTGAGCTCC)”, 0.0336; with “TAATGAGCATGGACCGGTTTTCCCGGTAATCCGTATTTGGG (site TATTGAGCTCC)”, 0.0136.
The result for “TAATGAGCATGGACCGGTTTTCCCGGTAATCCGTATTTGGG (site TCATGAGCTCC)” reads 0.203; that for “TAATGAGCATGGACCGGTTTTCCCGGTAATCCGTATTTGGG (site TGATGAGCTCC)”, 0.00873.
With “TAATGAGCATGGACCGGTTTTCCCGGTAATCCGTATTTGGG (site TTATGAGCTCC)”, the “recombinant UMI read abundance (log10)” value was determined as 0.0156.
On to “TAATGCTCATGGACCGGTTTTCCCGGTAATCCGTATTTGAA (site AAATGCTCTTT)”, for which the “recombinant UMI read abundance (log10)” value was found to be 0.111.
For “TAATGCTCATGGACCGGTTTTCCCGGTAATCCGTATTTGAA (site CAATGCTCTTT)”, the “recombinant UMI read abundance (log10)” value came to 0.61.
The result for “TAATGCTCATGGACCGGTTTTCCCGGTAATCCGTATTTGAA (site GAATGCTCTTT)” reads 0.106.
The result for “TAATGCTCATGGACCGGTTTTCCCGGTAATCCGTATTTGAA (site TAATGCTCTTT)” reads 1.19; that for “TAATGTCCATGGACCGGTTTTCCCGGTAATCCGTATTTGTA (site TAAAGTCCTTA)”, 0.459.
With “TAATGTCCATGGACCGGTTTTCCCGGTAATCCGTATTTGTA (site TAACGTCCTTA)”, the “recombinant UMI read abundance (log10)” value was found to be 0.254.
For “TAATGTCCATGGACCGGTTTTCCCGGTAATCCGTATTTGTA (site TAAGGTCCTTA)”, the “recombinant UMI read abundance (log10)” value worked out at 0.586.
Consider “TAATGTCCATGGACCGGTTTTCCCGGTAATCCGTATTTGTA (site TAATGTCCTTA)”, for which the “recombinant UMI read abundance (log10)” value is 0.766.
Turning to “TAATTAGCATGGACCGGTTTTCCCGGTAATCCGTATTTGGG (site TAATAAGCTCC)”, the “recombinant UMI read abundance (log10)” value amounted to 0.00264.
With “TAATTAGCATGGACCGGTTTTCCCGGTAATCCGTATTTGGG (site TAATCAGCTCC)” the figure was 0.0055.
With “TAATTAGCATGGACCGGTTTTCCCGGTAATCCGTATTTGGG (site TAATGAGCTCC)”, the “recombinant UMI read abundance (log10)” value came to 0.0311.
The result for “TAATTAGCATGGACCGGTTTTCCCGGTAATCCGTATTTGGG (site TAATTAGCTCC)” reads 0.0073; that for “TAATTCACATGGACCGGTTTTCCCGGTAATCCGTATTTGGG (site TAATTCACTCC)”, 0.0061.
With “TAATTGGCATGGACCGGTTTTCCCGGTAATCCGTATTTGTG (site TAATTGGCTCA)” the figure was 0.484.
With “TAATTGGCATGGACCGGTTTTCCCGGTAATCCGTATTTGTG (site TACTTGGCTCA)” the figure was 0.0115.
In the case of “TAATTGGCATGGACCGGTTTTCCCGGTAATCCGTATTTGTG (site TAGTTGGCTCA)”, the “recombinant UMI read abundance (log10)” value came to 0.0118.
With “TAATTGGCATGGACCGGTTTTCCCGGTAATCCGTATTTGTG (site TATTTGGCTCA)” the figure was 0.00466; with “TACAAGGCATGGACCGGTTTTCCCGGTAATCCGTATTTGGT (site TACAAGGCTAC)”, 0.732; with “TACACCGCATGGACCGGTTTTCCCGGTAATCCGTATTTGTA (site TACACCGCTTA)”, 1.36.
“TACACTTCATGGACCGGTTTTCCCGGTAATCCGTATTTGGC (site TACACTTCTGC)”: the “recombinant UMI read abundance (log10)” value came out at 0.
With “TACAGGCCATGGACCGGTTTTCCCGGTAATCCGTATTTGAC (site TACAGGCCTGT)” the figure was 0; with “TACATCTCATGGACCGGTTTTCCCGGTAATCCGTATTTGTG (site TACATCTCTCA)”, 0.976; with “TACATGACATGGACCGGTTTTCCCGGTAATCCGTATTTGCT (site TACATGACTAG)”, 2.15.
The result for “TACATGACATGGACCGGTTTTCCCGGTAATCCGTATTTGCT (site TACCTGACTAG)” reads 0.938; that for “TACATGACATGGACCGGTTTTCCCGGTAATCCGTATTTGCT (site TACGTGACTAG)”, 0.566; that for “TACATGACATGGACCGGTTTTCCCGGTAATCCGTATTTGCT (site TACTTGACTAG)”, 0.0568.
Consider “TACCCTGCATGGACCGGTTTTCCCGGTAATCCGTATTTGCA (site TACCCTGCTTG)”, for which the “recombinant UMI read abundance (log10)” value worked out at 0.
The result for “TACCGAACATGGACCGGTTTTCCCGGTAATCCGTATTTGGA (site TACCGAACTTC)” reads 0.277.
The result for “TACCTTACATGGACCGGTTTTCCCGGTAATCCGTATTTGCG (site TACCTTACTCG)” reads 0.0203; that for “TACGATGCATGGACCGGTTTTCCCGGTAATCCGTATTTGCT (site TACGATGCTAG)”, 1.98; that for “TACGCCACATGGACCGGTTTTCCCGGTAATCCGTATTTGAG (site TACGCCACTCT)”, 0.652.
The result for “TACGGTACATGGACCGGTTTTCCCGGTAATCCGTATTTGGT (site TACGGTACTAC)” reads 0.321; that for “TACGTTTCATGGACCGGTTTTCCCGGTAATCCGTATTTGCC (site TACGTTTCTGG)”, 1.7.
In the case of “TACTAATCATGGACCGGTTTTCCCGGTAATCCGTATTTGGG (site TACTAATCTCC)”, the “recombinant UMI read abundance (log10)” value came out at 0.0128.
With “TACTCAGCATGGACCGGTTTTCCCGGTAATCCGTATTTGGA (site TACTCAGCTTC)” the figure was 0.619; with “TACTCCGCATGGACCGGTTTTCCCGGTAATCCGTATTTGTC (site TACTCCGCTGA)”, 2.18; with “TACTGACCATGGACCGGTTTTCCCGGTAATCCGTATTTGGA (site TACTGACCTTC)”, 0.0192.
On to “TACTGACCATGGACCGGTTTTCCCGGTAATCCGTATTTGGG (site TACTGACCTCC)”, for which the “recombinant UMI read abundance (log10)” value was 0.0283.
With “TAGAATACATGGACCGGTTTTCCCGGTAATCCGTATTTGCA (site AAGAATACTTG)” the figure was 0.559; with “TAGAATACATGGACCGGTTTTCCCGGTAATCCGTATTTGCA (site CAGAATACTTG)”, 0.572; with “TAGAATACATGGACCGGTTTTCCCGGTAATCCGTATTTGCA (site GAGAATACTTG)”, 0.196.
With “TAGAATACATGGACCGGTTTTCCCGGTAATCCGTATTTGCA (site TAAAATACTTG)” the figure was 0.792; with “TAGAATACATGGACCGGTTTTCCCGGTAATCCGTATTTGCA (site TACAATACTTG)”, 0.745.
